In the supplement of paper PMC11451515:

Key:
Conditions in all cases: 48 h
[1] = test system: NOMO1; assay: AUC of viability dose-response curve (% viability x log10 dose units); higher = less sensitive
Summary of the method: (§1)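 Area under the curve was integrated by trapezoidal rule from a log-logistic fit of normalised viability, with curves exceeding full viability scaled and quality-control failures removed. The fit had four parameters over log10 doses. Viability came from CellTiter-Glo One luminescence, normalised per plate to DMSO and cell-free wells, after leukemia cells adapted to each medium (500 or 1000 cells/well, 1536-well plates) were exposed to library compounds in DMSO for 48 h at 37°C. The 11 threefold doses ran from 47 μM to 0.79 nM.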

[2] = test system: SEM cells; assay: as above
Summary of the method: as §1

[3] = test system: P12-Ichikawa; assay: as above
Summary of the method: as §1

[4] = test system: NOMO1; assay: cell viability relative to DMSO control; higher = less cytotoxic
Summary of the method: (§2)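 In 1536-well plates, 5 μl of leukemia cells were seeded per well: 500 cells/well for NOMO1 or SEM and 1000 cells/well for P12-Ichikawa. Each line had first been adapted for at least four passages in each medium. Library compounds in DMSO were pin-dosed at 11 threefold concentrations between 47 μM and 0.79 nM, and CellTiter-Glo One luminescence was read after 48 h at 37°C. Viability is a per-plate percentage relative to DMSO wells, with cell-free wells as background.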

[5] = test system: SEM cells; assay: as above
Summary of the method: as §2

[6] = test system: P12-Ichikawa; assay: as above
Summary of the method: as §2

CN1C[C@H]2c3ccccc3Oc3ccc(Cl)cc3[C@@H]2C1
AUC of viability dose-response curve
Conditions	[1]	[2]	[3]
HPLM + 10% dialyzed FBS	440	372	436
RPMI 5 mM glucose + 10% FBS	410	395	462
RPMI 5 mM glucose + 10% dialyzed FBS	418	396	410

cell viability [%]
Conditions	[4]	[5]	[6]
HPLM + 10% dialyzed FBS, 0.000781 µM	78.1	75.4	88.5
HPLM + 10% dialyzed FBS, 0.00234 µM	106	76	86.3
HPLM + 10% dialyzed FBS, 0.00702 µM	93.5	68	83.8
HPLM + 10% dialyzed FBS, 0.0211 µM	92.7	76.3	90.2
HPLM + 10% dialyzed FBS, 0.0632 µM	85.6	80.2	89.7
HPLM + 10% dialyzed FBS, 0.19 µM	90	84	96.8
HPLM + 10% dialyzed FBS, 0.569 µM	106	94.5	92.5
HPLM + 10% dialyzed FBS, 1.71 µM	96	90	96
HPLM + 10% dialyzed FBS, 5.12 µM	90.5	96.3	91.4
HPLM + 10% dialyzed FBS, 15.4 µM	93.8	85	93
HPLM + 10% dialyzed FBS, 46.1 µM	82.1	6.31	95.8
RPMI 5 mM glucose + 10% FBS, 0.000781 µM	75.8	89.6	96.9
RPMI 5 mM glucose + 10% FBS, 0.00234 µM	93.6	80.8	94.5
RPMI 5 mM glucose + 10% FBS, 0.00702 µM	88.7	90.6	95.6
RPMI 5 mM glucose + 10% FBS, 0.0211 µM	90.4	86.7	97.8
RPMI 5 mM glucose + 10% FBS, 0.0632 µM	91.3	71.4	88.4
RPMI 5 mM glucose + 10% FBS, 0.19 µM	83.3	91.7	95.4
RPMI 5 mM glucose + 10% FBS, 0.569 µM	80.7	92.4	98.2
RPMI 5 mM glucose + 10% FBS, 1.71 µM	88.2	90.6	99
RPMI 5 mM glucose + 10% FBS, 5.12 µM	80.4	95.8	96.7
RPMI 5 mM glucose + 10% FBS, 15.4 µM	87.3	79.3	103
RPMI 5 mM glucose + 10% FBS, 46.1 µM	85.6	5.32	101
RPMI 5 mM glucose + 10% dialyzed FBS, 0.000781 µM	85.8	73.5	87.6
RPMI 5 mM glucose + 10% dialyzed FBS, 0.00234 µM	86.1	83.7	89.7
RPMI 5 mM glucose + 10% dialyzed FBS, 0.00702 µM	85.4	76.6	82.3
RPMI 5 mM glucose + 10% dialyzed FBS, 0.0211 µM	94.2	83.3	87.6
RPMI 5 mM glucose + 10% dialyzed FBS, 0.0632 µM	87.4	73.5	87.5
RPMI 5 mM glucose + 10% dialyzed FBS, 0.19 µM	95.2	105	96.6
RPMI 5 mM glucose + 10% dialyzed FBS, 0.569 µM	85.2	107	87
RPMI 5 mM glucose + 10% dialyzed FBS, 1.71 µM	83.9	103	84.5
RPMI 5 mM glucose + 10% dialyzed FBS, 5.12 µM	93	85.3	80
RPMI 5 mM glucose + 10% dialyzed FBS, 15.4 µM	82.1	79.1	84.3
RPMI 5 mM glucose + 10% dialyzed FBS, 46.1 µM	85.3	6.04	78.1

CN[C@@H]1[C@H](O)[C@H](NC)[C@H]2O[C@@]3(O)C(=O)C[C@@H](C)O[C@H]3O[C@@H]2[C@H]1O
AUC of viability dose-response curve
Conditions	[1]	[2]	[3]
HPLM + 10% dialyzed FBS	438	465	457
RPMI 5 mM glucose + 10% FBS	424	445	450
RPMI 5 mM glucose + 10% dialyzed FBS	467	458	446

cell viability [%]
Conditions	[4]	[5]	[6]
HPLM + 10% dialyzed FBS, 0.000781 µM	123	119	118
HPLM + 10% dialyzed FBS, 0.00234 µM	135	125	117
HPLM + 10% dialyzed FBS, 0.00702 µM	117	122	124
HPLM + 10% dialyzed FBS, 0.0211 µM	113	123	115
HPLM + 10% dialyzed FBS, 0.0632 µM	124	121	118
HPLM + 10% dialyzed FBS, 0.19 µM	127	120	116
HPLM + 10% dialyzed FBS, 0.569 µM	128	118	114
HPLM + 10% dialyzed FBS, 1.71 µM	121	122	111
HPLM + 10% dialyzed FBS, 5.12 µM	103	113	114
HPLM + 10% dialyzed FBS, 15.4 µM	87.4	115	101
HPLM + 10% dialyzed FBS, 46.1 µM	42.6	109	98.4
RPMI 5 mM glucose + 10% FBS, 0.000781 µM	–	120	109
RPMI 5 mM glucose + 10% FBS, 0.00234 µM	–	110	117
RPMI 5 mM glucose + 10% FBS, 0.00702 µM	–	126	126
RPMI 5 mM glucose + 10% FBS, 0.0211 µM	–	117	120
RPMI 5 mM glucose + 10% FBS, 0.0632 µM	–	115	117
RPMI 5 mM glucose + 10% FBS, 0.19 µM	–	113	113
RPMI 5 mM glucose + 10% FBS, 0.569 µM	–	123	105
RPMI 5 mM glucose + 10% FBS, 1.71 µM	–	110	106
RPMI 5 mM glucose + 10% FBS, 5.12 µM	–	104	106
RPMI 5 mM glucose + 10% FBS, 15.4 µM	–	104	105
RPMI 5 mM glucose + 10% FBS, 46.1 µM	–	104	97.5
RPMI 5 mM glucose + 10% dialyzed FBS, 0.000781 µM	110	–	122
RPMI 5 mM glucose + 10% dialyzed FBS, 0.00234 µM	115	–	121
RPMI 5 mM glucose + 10% dialyzed FBS, 0.00702 µM	115	–	115
RPMI 5 mM glucose + 10% dialyzed FBS, 0.0211 µM	119	–	116
RPMI 5 mM glucose + 10% dialyzed FBS, 0.0632 µM	122	–	106
RPMI 5 mM glucose + 10% dialyzed FBS, 0.19 µM	121	–	116
RPMI 5 mM glucose + 10% dialyzed FBS, 0.569 µM	113	–	117
RPMI 5 mM glucose + 10% dialyzed FBS, 1.71 µM	114	–	106
RPMI 5 mM glucose + 10% dialyzed FBS, 5.12 µM	119	–	114
RPMI 5 mM glucose + 10% dialyzed FBS, 15.4 µM	103	–	107
RPMI 5 mM glucose + 10% dialyzed FBS, 46.1 µM	91.4	–	101

C[C@@H]1[C@H](O)[C@@H](C)/C=C/C=C/C=C/C=C/C=C/C=C/C=C/[C@H](O[C@@H]2O[C@H](C)[C@@H](O)[C@H](N)[C@@H]2O)C[C@@H]2O[C@](O)(C[C@@H](O)C[C@@H](O)[C@H](O)CC[C@@H](O)C[C@@H](O)CC(=O)O[C@H]1C)C[C@H](O)[C@H]2C(=O)O
AUC of viability dose-response curve
Conditions	[1]	[2]	[3]
HPLM + 10% dialyzed FBS	422	450	468
RPMI 5 mM glucose + 10% FBS	452	443	458
RPMI 5 mM glucose + 10% dialyzed FBS	461	465	465

cell viability [%]
Conditions	[4]	[5]	[6]
HPLM + 10% dialyzed FBS, 0.000781 µM	113	105	105
HPLM + 10% dialyzed FBS, 0.00234 µM	121	92.1	118
HPLM + 10% dialyzed FBS, 0.00702 µM	126	105	117
HPLM + 10% dialyzed FBS, 0.0211 µM	117	110	124
HPLM + 10% dialyzed FBS, 0.0632 µM	114	110	121
HPLM + 10% dialyzed FBS, 0.19 µM	116	110	126
HPLM + 10% dialyzed FBS, 0.569 µM	124	103	121
HPLM + 10% dialyzed FBS, 1.71 µM	123	114	129
HPLM + 10% dialyzed FBS, 5.12 µM	152	102	119
HPLM + 10% dialyzed FBS, 15.4 µM	138	105	127
HPLM + 10% dialyzed FBS, 46.1 µM	133	125	118
RPMI 5 mM glucose + 10% FBS, 0.000781 µM	108	113	119
RPMI 5 mM glucose + 10% FBS, 0.00234 µM	124	115	112
RPMI 5 mM glucose + 10% FBS, 0.00702 µM	112	110	118
RPMI 5 mM glucose + 10% FBS, 0.0211 µM	114	107	110
RPMI 5 mM glucose + 10% FBS, 0.0632 µM	111	105	119
RPMI 5 mM glucose + 10% FBS, 0.19 µM	115	112	123
RPMI 5 mM glucose + 10% FBS, 0.569 µM	133	112	134
RPMI 5 mM glucose + 10% FBS, 1.71 µM	119	108	127
RPMI 5 mM glucose + 10% FBS, 5.12 µM	125	104	122
RPMI 5 mM glucose + 10% FBS, 15.4 µM	118	121	125
RPMI 5 mM glucose + 10% FBS, 46.1 µM	135	118	123
RPMI 5 mM glucose + 10% dialyzed FBS, 0.000781 µM	–	110	98.6
RPMI 5 mM glucose + 10% dialyzed FBS, 0.00234 µM	–	103	113
RPMI 5 mM glucose + 10% dialyzed FBS, 0.00702 µM	–	108	119
RPMI 5 mM glucose + 10% dialyzed FBS, 0.0211 µM	–	93.8	110
RPMI 5 mM glucose + 10% dialyzed FBS, 0.0632 µM	–	114	130
RPMI 5 mM glucose + 10% dialyzed FBS, 0.19 µM	–	116	116
RPMI 5 mM glucose + 10% dialyzed FBS, 0.569 µM	–	105	123
RPMI 5 mM glucose + 10% dialyzed FBS, 1.71 µM	–	108	124
RPMI 5 mM glucose + 10% dialyzed FBS, 5.12 µM	–	109	124
RPMI 5 mM glucose + 10% dialyzed FBS, 15.4 µM	–	91.2	115
RPMI 5 mM glucose + 10% dialyzed FBS, 46.1 µM	–	127	124
